According to patent US20120302569A1, “PHENYL-THIAZOLYL INHIBITORS OF PRO-MATRIX METALLOPROTEINASE ACTIVATION” (priority 2011, published 2012):
Structures can show the parent of a compound that is named as a salt.

What was measured:
[1] = biological target: T1, proMMP13(1-268) (SEQ ID NO:7) (Homo sapiens, UniProt P45452); assay: ProMMP13/Plasmin P126 Activation Assay; format: biochemical; conditions: proMMP13(1-268) activated by plasmin
T1 construct: 6×-histidine tag (C); made in house; host or cells: HEK293 (transient transfection, secreted)
Experimental: ProMMP13/Plasmin P126 Activation Assay
On the day of assay, proMMP13(1-268) (SEQ ID NO:7) purified from HEK293 cells and plasmin were diluted to 160 nM and 320 nM, respectively, in assay buffer. The reaction volume was 50 μL. […] The plate was sealed and incubated for 40 min at 37° C. […] Plasmin was not reactive towards P-126 substrate under these conditions.

[2] = biological target: T2, proMMP9(20-445;ΔFnII) (SEQ ID NO:6) (Homo sapiens, UniProt P14780, DEL216-390); assay: ThermoFluor with proMMP9(20-445;ΔFnII); conditions: read-out: proMMP9(20-445; ΔFnII) (SEQ ID NO: 6) binding
T2 construct: start methionine (N); made in house; host or cells: E. coli BL21(DE3) RIL
T2 sequence (P14780 with tags, fused parts or gaps DEL216-390): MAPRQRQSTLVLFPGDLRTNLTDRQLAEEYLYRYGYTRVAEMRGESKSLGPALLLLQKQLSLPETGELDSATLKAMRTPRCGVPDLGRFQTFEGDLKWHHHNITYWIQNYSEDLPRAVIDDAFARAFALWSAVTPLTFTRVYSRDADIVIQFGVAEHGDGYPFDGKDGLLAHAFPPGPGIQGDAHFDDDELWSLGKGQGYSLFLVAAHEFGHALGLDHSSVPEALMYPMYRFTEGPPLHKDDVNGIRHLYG
Experimental: (§1) The ThermoFluor® (TF) assay is a 384-well plate-based binding assay that measures thermal stability of proteins (Biomol Screen 2001, 6, 429-40; Biochemistry 2005, 44, 5258-66). The experiments were carried out using instruments available from Johnson & Johnson Pharmaceutical Research & Development, LLC. TF dye used in all experiments was […] (1,8-ANS) (Invitrogen: A-47).
(§2) Compounds were arranged in a pre-dispensed plate (Greiner Bio-one: 781280), wherein compounds were serially diluted in 100% DMSO across 11 columns within a series. Columns 12 and 24 were used as DMSO reference and contained no compound. For multiple compound concentration-response experiments, the compound aliquots (50 nL) were robotically predispensed directly into black 384-well polypropylene PCR microplates (Abgene: TF-0384/k) using a Cartesian Hummingbird liquid handler (DigiLab, Holliston, Mass.). Following compound dispense, protein and dye solutions were added to achieve the final assay volume of 3 μL. The assay solutions were overlayed with 1 μL of silicone oil (Fluka, type DC 200: 85411) to prevent evaporation.
(§3) Assay plates were robotically loaded onto a thermostatically controlled PCR-type thermal block and then heated from 40 to 90° C. at a ramp-rate of 1° C./min for all experiments. Fluorescence was measured by continuous illumination with UV light (Hamamatsu LC6) supplied via fiber optics and filtered through a band-pass filter (380-400 nm; >6 OD cutoff). Fluorescence emission of the entire 384-well plate was detected by measuring light intensity using a CCD camera (Sensys, Roper Scientific) filtered to detect 500±25 nm, resulting in simultaneous and independent readings of all 384 wells. A single image with 20-sec exposure time was collected at each temperature, and the sum of the pixel intensity in a given area of the assay plate was recorded vs temperature and fit to standard equations to yield the Tm (J Biomol Screen 2001, 6, 429-40).
(§4) Thermodynamic parameters necessary for fitting compound binding for each proMMP were estimated by differential scanning calorimetry (DSC) and from ThermoFluor® data. The heat capacity of unfolding for each protein was estimated from the molecular weight and from ThermoFluor® dosing data.
ThermoFluor® with proMMP9(20-445;ΔFnII) (SEQ ID NO:6)
The protein sample preparations included a desalting buffer exchange step via a PD-10 gravity column (GE Healthcare). The desalting buffer exchange was performed prior to diluting the protein to the final assay concentration of 2.8 μM proMMP9(20-445;ΔFnII) (SEQ ID NO:6). The concentration of proMMP9(20-445;ΔFnII) (SEQ ID NO:6) was determined spectrophotometrically based on a calculated extinction coefficient of ε280=39880 M^−1cm^−1, a calculated molecular weight of 28.2 kDa, and calculated pI of 5.5. ThermoFluor® reference conditions were define as follows: 80 μg/mL (2.8 μM) proMMP9(20-445;ΔFnII) (SEQ ID NO:6), 50 μM 1,8-ANS, pH 7.0 Buffer (50 mM HEPES pH 7.0, 100 mM NaCl, 0.001% Tween-20, 2.5 mM MgCl2, 300 μM CaCl2). The thermodynamic parameters for proMMP9(20-445;ΔFnII) (SEQ ID NO:6) are as follows: Tm (° C.)=72 (+/−0.1), ΔUH(Tm) (cal mol^−1)=160000(+/−5000), ΔUS(Tm) (cal mol^−1 K^−1)=434, ΔUCp (cal mol^−1 K^−1)=2400.

[3] = biological target: T3, proMMP9(67-444;ΔFnII) (SEQ ID NO:5) (Homo sapiens, UniProt P14780, DEL216-390); assay: ThermoFluor with proMMP9(67-444;ΔFnII); conditions: read-out: proMMP9(67-444; ΔFnII) (SEQ ID NO: 5) binding
T3 construct: start methionine (N); made in house; host or cells: E. coli BL21(DE3) RIL
T3 sequence (P14780 with tags, fused parts or gaps DEL216-390): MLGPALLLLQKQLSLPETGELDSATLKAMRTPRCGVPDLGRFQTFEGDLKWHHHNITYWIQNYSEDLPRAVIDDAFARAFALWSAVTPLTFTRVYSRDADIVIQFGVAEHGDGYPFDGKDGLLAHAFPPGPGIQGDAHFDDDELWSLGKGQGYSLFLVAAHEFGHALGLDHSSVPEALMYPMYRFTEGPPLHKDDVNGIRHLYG
Experimental: as §1, §2, §3, §4
ThermoFluor® with proMMP9(67-444;ΔFnII) (SEQ ID NO:5)
The protein sample preparations had to include a desalting buffer exchange step via a PD-10 gravity column (GE Healthcare). The desalting buffer exchange was performed prior to diluting the protein to the final assay concentration of 3.5 μM proMMP9(67-444;ΔFnII) (SEQ ID NO:5). The concentration of proMMP9(67-444;ΔFnII) (SEQ ID NO:5) was determined spectrophotometrically based on a calculated extinction coefficient of ε280=33900 M^−1cm^−1, a calculated molecular weight of 22.6 kDa, and calculated pI of 5.20. ThermoFluor® reference conditions were defined as follows: 80 μg/mL (3.5 μM) proMMP9(67-444;ΔFnII) (SEQ ID NO:5), 50 μM 1,8-ANS, pH 7.0 Buffer (50 mM HEPES pH 7.0, 100 mM NaCl, 0.001% Tween-20, 2.5 mM MgCl2, 300 μM CaCl2). The thermodynamic parameters for proMMP9(67-444;ΔFnII) (SEQ ID NO:5) are as follows: Tm (° C.)=63 (+/−0.1), ΔUH(Tm) (cal mol^−1)=105000(+/−5000), ΔUS(Tm) (cal mol^−1 K^−1)=450, […].

[4] = biological target: T4, full-length proMMP9(1-707) (SEQ ID NO:1) (Homo sapiens, UniProt P14780, R574P); assay: proMMP9/MMP3 P126 Activation Assay; format: biochemical; conditions: proMMP9(1-707) from HEK293 cells activated by catalytic MMP3
T4 construct: made in house; host or cells: HEK293 (proMMP9, secreted); E. coli (MMP3)
Experimental: proMMP9/MMP3 P126 Activation Assay
The reaction volume was 50 μL. […] Reactivity of residual MMP3 towards P-126 substrate was minimal under these conditions.

T4 sequence (P14780 20-707 R574P): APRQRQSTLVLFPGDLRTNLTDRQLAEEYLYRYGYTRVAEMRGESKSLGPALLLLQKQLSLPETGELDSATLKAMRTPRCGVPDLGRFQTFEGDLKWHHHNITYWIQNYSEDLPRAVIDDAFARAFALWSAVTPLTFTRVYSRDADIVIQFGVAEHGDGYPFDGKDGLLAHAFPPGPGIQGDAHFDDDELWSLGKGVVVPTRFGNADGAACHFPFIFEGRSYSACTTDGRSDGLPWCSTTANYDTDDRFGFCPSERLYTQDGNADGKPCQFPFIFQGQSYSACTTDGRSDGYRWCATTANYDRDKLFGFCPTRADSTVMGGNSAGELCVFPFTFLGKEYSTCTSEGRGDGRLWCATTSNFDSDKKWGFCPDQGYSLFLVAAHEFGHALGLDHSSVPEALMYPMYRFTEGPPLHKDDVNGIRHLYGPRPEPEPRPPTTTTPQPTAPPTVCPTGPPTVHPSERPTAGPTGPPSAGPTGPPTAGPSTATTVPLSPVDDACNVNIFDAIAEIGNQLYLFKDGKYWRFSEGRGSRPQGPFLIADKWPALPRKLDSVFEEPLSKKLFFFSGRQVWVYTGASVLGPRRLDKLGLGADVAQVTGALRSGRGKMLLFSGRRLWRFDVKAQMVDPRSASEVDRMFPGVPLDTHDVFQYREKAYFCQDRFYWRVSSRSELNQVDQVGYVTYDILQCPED

SMILES | IC50 [1] [nM] | Kd [2] [nM] | Kd [3] [nM] | IC50 [4] [nM]
CC(C)Oc1ccc(S(N)(=O)=O)cc1Nc1nc(-c2ccc(C3=CCN(C)CC3)cc2)cs1 [Example 13, 4-Isopropoxy-3-((4-(4-(1-methyl-1,2,3,6-tetrahydropyridin-4-yl)phenyl)thiazol-2-yl)amino)benzenesulfonamide.TFA] | 190 | 17 | 14 | 24
CCOc1ccncc1Nc1nc(-c2ccc(C3=CCN(CC)CC3)cc2)cs1 [Example 22, N-(4-Ethoxypyridin-3-yl)-4-(4-(1-ethyl-1,2,3,6-tetrahydropyridin-4-yl)phenyl)thiazol-2-amine.TFA] | 1200 | 340 | 36 | 69
CC(C)Oc1ccc(C(N)=O)cc1Nc1nc(-c2ccc(C3=CCN(C(C)C)CC3)cc2)cs1 [Example 19, 4-Isopropoxy-3-((4-(4-(1-isopropyl-1,2,3,6-tetrahydropyridin-4-yl)phenyl)thiazol-2-yl)amino)benzamide.TFA] | 87 | 13 | 21 | 28
CC(C)Oc1ccc(S(N)(=O)=O)cc1Nc1nc(-c2ccc(CN3CCN(C(C)C)CC3)cc2)cs1 [Example 57, 4-isopropoxy-3-((4-(4-((4-isopropylpiperazin-1-yl)methyl)phenyl)thiazol-2-yl)amino)benzenesulfonamide.TFA] | 4000 |  |  | 150
COc1ccc(F)cc1Nc1nc(-c2ccc(OCCN3CCC(F)CC3)cc2)cs1 [Example 68, N-(5-fluoro-2-methoxyphenyl)-4-(4-(2-(4-fluoropiperidin-1-yl)ethoxy)phenyl)thiazol-2-amine.TFA] |  | > 19000 | 2600 | 1300
CC(C)Oc1ccc(C(N)=O)cc1Nc1nc(-c2ccc(CN3CCOCC3)cc2)cs1 [Example 58, 4-isopropoxy-3-((4-(4-(morpholinomethyl)phenyl)thiazol-2-yl)amino)benzamide.TFA] |  | 56 | 210 | 250
NS(=O)(=O)c1ccc(OC(F)(F)F)c(Nc2nc(-c3ccc(OCCN4CCC(F)(F)CC4)cc3)cs2)c1 [Example 33, 3-((4-(4-(2-(4,4-difluoropiperidin-1-yl)ethoxy)phenyl)thiazol-2-yl)amino)-4-(trifluoromethoxy)benzenesulfonamide.TFA] |  | 1300 | 650 | 16000
COc1ccc(F)cc1Nc1nc(-c2ccc(OCCN3CCN(C4CC4)CC3)cc2)cs1 [Example 70, 4-(4-(2-(4-cyclopropylpiperazin-1-yl)ethoxy)phenyl)-N-(5-fluoro-2-methoxyphenyl)thiazol-2-amine.TFA] |  | > 76000 | 2100 | 480
COc1ccc(F)cc1Nc1nc(-c2ccc(OCCN3CCC(F)(F)CC3)cc2)cs1 [Example 67, 4-(4-(2-(4,4-difluoropiperidin-1-yl)ethoxy)phenyl)-N-(5-fluoro-2-methoxyphenyl)thiazol-2-amine.TFA] |  | > 9000 | 7700 | ≥ 20000
CC(C)Oc1ccc(C(N)=O)cc1Nc1nc(-c2ccc(CN3CC[C@@H](F)C3)cc2)cs1 [Example 52, (R)-3-((4-(4-((3-fluoropyrrolidin-1-yl)methyl)phenyl)thiazol-2-yl)amino)-4-isopropoxybenzamide.TFA] |  | 27 | 87 | 110
CC(C)Oc1ccc(S(N)(=O)=O)cc1Nc1nc(-c2ccc(C3=CCN(C(C)C)CC3)cc2)cs1 [Example 15, 4-Isopropoxy-3-((4-(4-(1-isopropyl-1,2,3,6-tetrahydropyridin-4-yl)phenyl)thiazol-2-yl)amino)benzenesulfonamide.TFA] |  | 17 | 18 | 28
CC(C)Oc1ccc(C(N)=O)cc1Nc1nc(-c2ccc(CN3CCC(F)CC3)cc2)cs1 [Example 54, 3-((4-(4-((4-fluoropiperidin-1-yl)methyl)phenyl)thiazol-2-yl)amino)-4-isopropoxybenzamide.TFA] |  | 31 | 110 | 95
COc1ccc(F)cc1Nc1nc(-c2ccc(CN3CCN(C4CC4)CC3)cc2)cs1 [Example 60, 4-(4-((4-cyclopropylpiperazin-1-yl)methyl)phenyl)-N-(5-fluoro-2-methoxyphenyl)thiazol-2-amine.TFA] |  | 35000 | 9400 | 930
CC(C)Oc1ccc(S(N)(=O)=O)cc1Nc1nc(-c2ccc(N3CCN(Cc4ccccc4)CC3)cc2)cs1 [Example 6, 3-((4-(4-(4-Benzylpiperazin-1-yl)phenyl)thiazol-2-yl)amino)-4-isopropoxybenzenesulfonamide.TFA] |  | 410 | 650 | 1200
CC(C)Oc1ccc(C(N)=O)cc1Nc1nc(-c2ccc(C3=CCNCC3)cc2)cs1 [Example 16, 4-Isopropoxy-3-((4-(4-(1,2,3,6-tetrahydropyridin-4-yl)phenyl)thiazol-2-yl)amino)benzamide.TFA] |  | 14 | 33 | 49
